Measurements taken from the supplement of paper PMC13380429.

How the values were obtained:
Settings in all cases: 72 h
[1] = system: HepG2; test: relative viability EC50 (midpoint between 100% and the lowest measured viability); higher = less toxic
[2] = system: Calu-3; test: as above
[3] = system: Caco-2; test: as above
[4] = system: Vero E6; test: as above
[5] = system: U2OS; test: as above
[6] = system: HepG2; test: cell viability relative to DMSO; higher = less toxic
[7] = system: Calu-3; test: as above
[8] = system: Caco-2; test: as above
[9] = system: Vero E6; test: as above
[10] = system: U2OS; test: as above
[11] = system: HepG2; test: drug sensitivity score (DSS) for viability; higher = more toxic; extreme values may be limits of the assay
[12] = system: Calu-3; test: as above
[13] = system: Caco-2; test: as above
[14] = system: Vero E6; test: as above
[15] = system: U2OS; test: as above

Structure (SMILES) | relative viability EC50 [1] [µM] | relative viability EC50 [2] [µM] | relative viability EC50 [3] [µM] | relative viability EC50 [4] [µM] | relative viability EC50 [5] [µM] | cell viability ([6]; 1 nM) [%] | cell viability ([6]; 10 nM) [%] | cell viability ([6]; 100 nM) [%] | cell viability ([6]; 1000 nM) [%] | cell viability ([6]; 10000 nM) [%] | cell viability ([7]; 1 nM) [%] | cell viability ([7]; 10 nM) [%] | cell viability ([7]; 100 nM) [%] | cell viability ([7]; 1000 nM) [%] | cell viability ([7]; 10000 nM) [%] | cell viability ([8]; 1 nM) [%] | cell viability ([8]; 10 nM) [%] | cell viability ([8]; 100 nM) [%] | cell viability ([8]; 1000 nM) [%] | cell viability ([8]; 10000 nM) [%] | cell viability ([9]; 1 nM) [%] | cell viability ([9]; 10 nM) [%] | cell viability ([9]; 100 nM) [%] | cell viability ([9]; 1000 nM) [%] | cell viability ([9]; 10000 nM) [%] | cell viability ([10]; 1 nM) [%] | cell viability ([10]; 10 nM) [%] | cell viability ([10]; 100 nM) [%] | cell viability ([10]; 1000 nM) [%] | cell viability ([10]; 10000 nM) [%] | drug sensitivity score [11] | drug sensitivity score [12] | drug sensitivity score [13] | drug sensitivity score [14] | drug sensitivity score [15]
COc1cc(NS(C)(=O)=O)ccc1Nc1c2ccccc2nc2ccccc12 [amsacrine] | 0.241 | 0.866 | 2.35 | 0.677 | 2.79 | 87.4 | 89.9 | 78.5 | 48.8 | 29 | 105 | 93.7 | 80.3 | 61.5 | 12.3 | 101 | 90.9 | 97.3 | 91.6 | 14.3 | 93 | 89.3 | 94.6 | 65.2 | 41.7 | 103 | 98.1 | 99.5 | 96.9 | 37.2 | 12.6 | 10.3 | 6.1 | 7.4 | 3.9
CC(C)(C)NC[C@H](O)c1ccc(O)cc1Cl [meluadrine] | > 10 | > 10 | > 10 | > 10 | > 10 | 105 | 106 | 103 | 95 | 105 | 92.8 | 104 | 98.3 | 104 | 104 | 97.9 | 97.6 | 93.9 | 97.6 | 90.7 | 109 | 102 | 102 | 99.9 | 104 | 99.3 | 101 | 96.4 | 100 | 96.4 | 0 | 0 | 0 | 0 | 0
CNC(=O)[C@@H](c1ccccc1)N1CCc2cc(OC)c(OC)cc2[C@@H]1CCc1ccc(C(F)(F)F)cc1 [almorexant] | > 10 | > 10 | > 10 | > 10 | > 10 | 102 | 103 | 99.5 | 94.2 | 94.1 | 94.3 | 91.6 | 94.4 | 95.9 | 98.4 | 92.1 | 99.3 | 96.1 | 108 | 76 | 97.4 | 93 | 95.4 | 92.3 | 109 | 94.7 | 104 | 91.2 | 99.4 | 92.6 | 0 | 0 | 0.6 | 0 | 0
COc1cc(C[C@@H]2NCCc3cc(O)c(O)cc32)cc(OC)c1OC [trimethoquinol] | > 10 | > 10 | > 10 | > 10 | > 10 | 110 | 99.2 | 112 | 90.6 | 83.5 | 91.7 | 88.9 | 101 | 86 | 95.7 | 91.3 | 114 | 118 | 107 | 80.3 | 103 | 93.1 | 108 | 93.8 | 96.9 | 89.5 | 97 | 97.3 | 102 | 107 | 1.1 | 0 | 0.3 | 0 | 0
CC(C)[C@](O)(c1ccc2cc(OC(F)F)c(OC(F)F)cc2c1)c1c[nH]nn1 [VT-464] | > 10 | > 10 | > 10 | > 10 | > 10 | 101 | 104 | 98.1 | 109 | 90.8 | 104 | 101 | 93.2 | 93 | 96.5 | 93.3 | 103 | 105 | 95.1 | 88.3 | 98.8 | 103 | 99.3 | 98.2 | 94.5 | 96.3 | 101 | 99.2 | 102 | 93 | 0 | 0 | 0.2 | 0 | 0
N#CC(C#N)=Cc1ccc(O)c(O)c1 [tyrphostin-AG-18] | > 10 | > 10 | > 10 | > 10 | > 10 | 93 | 96.8 | 97.7 | 102 | 87.9 | 93.5 | 104 | 105 | 107 | 111 | 88.2 | 96.4 | 93.9 | 89.2 | 91.6 | 96.4 | 92.1 | 96.6 | 94.9 | 94.9 | 96.1 | 98.1 | 95.2 | 96.5 | 92.1 | 0 | 0 | 0 | 0 | 0
c1ccc(-c2nc(CN3CCN(c4ncccn4)CC3)c[nH]2)cc1 [NGD-94-1] | > 10 | > 10 | > 10 | > 10 | > 10 | 98.2 | 97.3 | 94.1 | 101 | 105 | 79.7 | 93.8 | 85.5 | 95.7 | 108 | 99.7 | 106 | 91.9 | 102 | 111 | 93.2 | 97.5 | 91.5 | 92.9 | 105 | 100 | 95.5 | 98.4 | 92.5 | 109 | 0 | 0 | 0 | 0 | 0
CCCCCNC(=N)N/N=C/c1c[nH]c2ccc(OC)cc12 [tegaserod] | > 10 | > 10 | > 10 | > 10 | > 10 | 94.6 | 94 | 109 | 105 | 114 | 105 | 96.3 | 97.9 | 91.4 | 92.9 | 83.7 | 89.8 | 108 | 84.7 | 96.9 | 100 | 94.4 | 97.8 | 90.7 | 92.8 | 94.1 | 99.3 | 94.6 | 97.7 | 95.9 | 0 | 0 | 0 | 0 | 0
O=C(O)c1cc(=O)c2ccccc2[nH]1 [kynurenic-acid] | > 10 | > 10 | > 10 | > 10 | > 10 | 93.9 | 94.2 | 99.1 | 108 | 96 | 89.7 | 89.2 | 97.1 | 94.1 | 104 | 94.9 | 101 | 99.6 | 99.6 | 106 | 96.9 | 98.7 | 97.6 | 97.5 | 97.7 | 104 | 101 | 103 | 97 | 98.8 | 0 | 0 | 0 | 0 | 0
CS(=O)(=O)c1ccc([C@@H](O)[C@@H](CF)NC(=O)C(Cl)Cl)cc1 [florfenicol] | 2.11 | > 10 | > 10 | > 10 | > 10 | 107 | 91 | 115 | 93.1 | 48 | 93.7 | 90.8 | 86.2 | 103 | 98.8 | 109 | 99.9 | 107 | 97.1 | 96 | 100 | 104 | 95.9 | 104 | 95.2 | 99.9 | 96.2 | 99.1 | 98.3 | 99.5 | 3.9 | 0 | 0 | 0 | 0
CCN1/C(=C/C(C)=O)Sc2ccc(OC)cc21 [TG-003] | > 10 | > 10 | > 10 | > 10 | > 10 | 98 | 96.9 | 93 | 93.2 | 87.2 | 99.2 | 105 | 106 | 96.8 | 102 | 98.9 | 92.9 | 96.6 | 99.2 | 95.4 | 98.9 | 98.6 | 99.1 | 93.5 | 93.7 | 106 | 98.7 | 96.9 | 104 | 102 | 0.1 | 0 | 0 | 0 | 0
NC(=O)c1ccc2[nH]ccc2c1 [SD-169] | > 10 | > 10 | > 10 | > 10 | > 10 | 93.7 | 92.4 | 102 | 102 | 83.4 | 103 | 87.6 | 98.5 | 99.6 | 101 | 94.7 | 90.8 | 100 | 92.9 | 99.2 | 98.8 | 99.1 | 92.6 | 97.6 | 89.8 | 104 | 104 | 102 | 98.9 | 101 | 0.3 | 0 | 0 | 0 | 0
Cn1cnc2c(NCc3ccccc3)nc(NCCO)nc21 [olomoucine] | > 10 | > 10 | > 10 | > 10 | > 10 | 106 | 106 | 96.4 | 112 | 114 | 102 | 97.9 | 96 | 99.9 | 105 | 97.5 | 93.3 | 92.5 | 98.7 | 106 | 93 | 98.1 | 96 | 99.7 | 104 | 103 | 101 | 103 | 96.9 | 108 | 0 | 0 | 0 | 0 | 0
CCOC(=O)Nc1cc2c(c(N)n1)N=C(c1ccccc1)[C@H](C)N2 [mivobulin] | 0.0067 | 0.0083 | 0.0055 | 0.0039 | 0.005 | 99.6 | 42.9 | 24.1 | 21.5 | 22.9 | 95.7 | 65.2 | 37.5 | 40.7 | 42.7 | 103 | 52.5 | 48.7 | 47.3 | 42.2 | 94.3 | 20.2 | 8.2 | 9.9 | 13.5 | 95.7 | 38.6 | 20.7 | 23.3 | 21.9 | 31.1 | 23.7 | 23.8 | 38.5 | 32.4
